The values below come from publication PMC3903614, “Factors That Control the Chemistry of the LOV Domain Photocycle” (PLoS ONE, 2014).

Holding throughout (test): UV-Vis absorbance of bound flavin, dark recovery after photosaturation
Format in all cases: binding

The target in assay [1] is T1, AsLOV2 (A. sativa phot1 LOV2) (Avena sativa, UniProt O49003).
T1 construct: gene NPH1-1; LOV2 domain with flanking helices, residues 404-560; His6-Gβ1 tag removed by TEV; GEF left on the amino terminus and G on the carboxy terminus; expressed in E. coli BL21(DE3)
T1 sequence (O49003 entry or part of it): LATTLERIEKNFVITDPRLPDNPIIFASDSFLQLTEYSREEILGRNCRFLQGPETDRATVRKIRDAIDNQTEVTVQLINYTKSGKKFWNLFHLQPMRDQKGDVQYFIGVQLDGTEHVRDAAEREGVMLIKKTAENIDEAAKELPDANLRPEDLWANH
Particulars: 22 °C; bound chromophore; covalent cysteinyl-C4a photoadduct with C450 in the light, noncovalent in the dark; adduct decay time, not an affinity; Table 1 gives 80 s from earlier work.

The target in assay [2] is T2, AsLOV2 (A. sativa phot1 LOV2) (Avena sativa, UniProt O49003, N414L).
T2 construct: gene NPH1-1; LOV2 domain with flanking helices, residues 404-560; His6-Gβ1 tag removed by TEV; GEF left on the amino terminus and G on the carboxy terminus; expressed in E. coli BL21(DE3)
T2 sequence (O49003 entry or part of it N414L): as the sequence (O49003 entry or part of it) above, with N11L counted along it
The note with it: 22 °C; bound chromophore; covalent photoadduct with C450 in the light; adduct decay time, not an affinity. From the text: (§1) UV-Vis absorbance of bound flavin, dark recovery after photosaturation on AsLOV2 (A. sativa phot1 LOV2)

Assay [3] addresses T3, AsLOV2 (A. sativa phot1 LOV2) (Avena sativa, UniProt O49003, Q513D).
T3 construct: gene NPH1-1; LOV2 domain with flanking helices, residues 404-560; His6-Gβ1 tag removed by TEV; GEF left on the amino terminus and G on the carboxy terminus; expressed in E. coli BL21(DE3)
Particulars: 22 °C; bound chromophore; covalent photoadduct with C450 in the light; adduct decay time, not an affinity.
Description: as §1

The target in assay [4] is T4, AsLOV2 (A. sativa phot1 LOV2) (Avena sativa, UniProt O49003, N414G).
T4 construct: gene NPH1-1; LOV2 domain with flanking helices, residues 404-560; His6-Gβ1 tag removed by TEV; GEF left on the amino terminus and G on the carboxy terminus; expressed in E. coli BL21(DE3)
T4 sequence (O49003 entry or part of it N414G): as the sequence (O49003 entry or part of it) above, with N11G counted along it
Particulars: 22 °C; bound chromophore; covalent photoadduct with C450 in the light; adduct decay time, not an affinity.
Description: as §1

For assay [5], the target named is T5, AsLOV2 (A. sativa phot1 LOV2) (Avena sativa, UniProt O49003, N414A).
T5 construct: gene NPH1-1; LOV2 domain with flanking helices, residues 404-560; His6-Gβ1 tag removed by TEV; GEF left on the amino terminus and G on the carboxy terminus; expressed in E. coli BL21(DE3)
T5 sequence (O49003 entry or part of it N414A): as the sequence (O49003 entry or part of it) above, with N11A counted along it
The note with it: 22 °C; bound chromophore; covalent photoadduct with C450 in the light; adduct decay time, not an affinity.
Description: as §1

For assay [6], the target named is T6, AsLOV2 (A. sativa phot1 LOV2) (Avena sativa, UniProt O49003, C450V/F494C).
T6 construct: gene NPH1-1; LOV2 domain with flanking helices, residues 404-560; His6-Gβ1 tag removed by TEV; GEF left on the amino terminus and G on the carboxy terminus; expressed in E. coli BL21(DE3)
T6 sequence (O49003 entry or part of it C450V/F494C): as the sequence (O49003 entry or part of it) above, with C47V, F91C counted along it
Particulars: 22 °C; relocated active-site cysteine (C494); covalent photoadduct in the light, <10% bleaching; adduct decay time, not an affinity.
Description: as §1

Assay [7] concerns the target T7, AsLOV2 (A. sativa phot1 LOV2) (Avena sativa, UniProt O49003, N414Q).
T7 construct: gene NPH1-1; LOV2 domain with flanking helices, residues 404-560; His6-Gβ1 tag removed by TEV; GEF left on the amino terminus and G on the carboxy terminus; expressed in E. coli BL21(DE3)
Particulars: 22 °C; bound chromophore; covalent photoadduct with C450 in the light; adduct decay time, not an affinity.
Description: as §1

For assay [8], the target named is T8, AsLOV2 (A. sativa phot1 LOV2) (Avena sativa, UniProt O49003, Q513L).
T8 construct: gene NPH1-1; LOV2 domain with flanking helices, residues 404-560; His6-Gβ1 tag removed by TEV; GEF left on the amino terminus and G on the carboxy terminus; expressed in E. coli BL21(DE3)
T8 sequence (O49003 entry or part of it Q513L): as the sequence (O49003 entry or part of it) above, with Q110L counted along it
Particulars: 22 °C; bound chromophore; covalent photoadduct with C450 in the light; adduct decay time, not an affinity.
Description: as §1

For assay [9], the target named is T9, AsLOV2 (A. sativa phot1 LOV2) (Avena sativa, UniProt O49003, N414D).
T9 construct: gene NPH1-1; LOV2 domain with flanking helices, residues 404-560; His6-Gβ1 tag removed by TEV; GEF left on the amino terminus and G on the carboxy terminus; expressed in E. coli BL21(DE3)
T9 sequence (O49003 entry or part of it N414D): as the sequence (O49003 entry or part of it) above, with N11D counted along it
The note with it: 22 °C; bound chromophore; covalent photoadduct with C450 in the light; adduct decay time, not an affinity.
Description: as §1

The target of assay [10] is T10, AsLOV2 (A. sativa phot1 LOV2) (Avena sativa, UniProt O49003, F494C).
T10 construct: gene NPH1-1; LOV2 domain with flanking helices, residues 404-560; His6-Gβ1 tag removed by TEV; GEF left on the amino terminus and G on the carboxy terminus; expressed in E. coli BL21(DE3)
T10 sequence (O49003 entry or part of it F494C): as the sequence (O49003 entry or part of it) above, with F91C counted along it
The note with it: 22 °C; bound chromophore; covalent photoadduct with C450 in the light; adduct decay time, not an affinity.
Description: as §1

T7 sequence (O49003 entry or part of it N414Q): as the sequence (O49003 entry or part of it) above, with N11Q counted along it
T3 sequence (O49003 entry or part of it Q513D): as the sequence (O49003 entry or part of it) above, with Q110D counted along it

On to `Cc1cc2nc3c(=O)[nH]c(=O)nc-3n(C[C@H](O)[C@H](O)[C@H](O)COP(=O)(O)O)c2cc1C` [FMN, flavin mononucleotide], for which the τFMN in assay [1] was found to be 81 ± 2 s; in assay [2] it was 1847 s; in assay [3] it was 5 s; in assay [4] it was 615 s; in assay [5], 1427 s; in assay [6] it was 69 s. Moreover, the “τFMN” value in assay [7] amounted to 280 s; in [8], 1793 s; in [9] it was 69 s; in [10] it was 282 s.
